The text below walks through data of patent US9284325B2, “Spectinamides as anti-tuberculosis agents” (UNIVERSITY OF TENNESSEE RESEARCH FOUNDATION, priority 2009, dated 2016).

Data set [1] has as its system Proteus vulgaris ATCC 33420. Kind of data set: MIC determination by microbroth dilution. The format is cell-based. The note with it: ATCC33420. Background: In broth dilution the organism is exposed to a series of concentrations in liquid medium.
For data set [2], the system named is Klebsiella pneumoniae ATCC 33495. In words: MIC determination by microbroth dilution. The class given is cell-based. As to conditions: ATCC33495.
The test system of the next data set is E. coli ribosomes. The format is biochemical.
The format of data set [3] is in vitro ADME. The note with it: rat, microsomes, 1.5 h, 2 µM, pH 7.4. As for the experimental part: In Vitro Microsomal Metabolic Stability: In vitro microsomal metabolic stability of the compounds was assessed using pooled rat liver microsomal preparations (Cellzdirect, Austin, Tex., United States of America). Reactions were started by adding 25 μL of microsomal protein solution (10 mg/mL) to 25 μL of test compound (20 μM) and 200 μL of NADPH regenerating solution (1.3 mM NADP+, 3.3 mM glucose-6-phosphate, 3.3 mM MgCl2 and 1 unit/mL glucose-6-phosphate dehydrogenase in pH 7.4 phosphate buffer solution). The reaction mixture was incubated at 37° C. and samples were taken at 0, 5, 10, 15, 30, 45, 60 and 90 minutes respectively. A reaction mixture containing above mentioned composition but instead using deactivated microsomes was used for control. All the samples were analyzed using LC-MS/MS assay. Disappearance of the parent compound was monitored during the incubation period. The percentage of parent compound remaining intact was estimated by comparing analyte concentrations before and after incubation.
Following intravenous administration of 10 mg/kg in rats, 1329 follows a bi-exponential concentration/time profile with distinct distribution and elimination phases. Plasma protein binding of the compound is approximately 30%. 1329 is widely distributed with a steady state volume of distribution of 4.3 L/kg. It has a mean residence time in the body of approximately 5.3 hours.

The test system of data set [4] is Strenotrophomonas maltophilia ATCC 13637. In words: MIC determination by microbroth dilution. The class given is cell-based.
Another data set deals with E. coli K12 ΔtolC. In words: microbe, parasite or virus in culture. The class given is cell-based. As to conditions: Escherichia coli, read-out: MIC E. coli K12 ΔtolC.
For a further data set, the system named is P. aeruginosa PAO1. Kind of data set: MIC determination by microbroth dilution. The class given is cell-based, Pseudomonas aeruginosa. As to conditions: Pseudomonas aeruginosa.
The test system of another data set is Vero epithelial cells. The note with it: African green monkey.
Data set [5] relates to S. aureus 8325 or strain ATCC 29213. In words: MIC determination by microbroth dilution. The class given is cell-based, Staphylococcus aureus. As to conditions: Staphylococcus aureus, ATCC29213; S. aureus 8325 or strain ATCC 29213 (for 1471-1544).
In data set [6] the test system is Burkholderia cepacia ATCC 25416. Kind of data set: MIC determination by microbroth dilution. The format is cell-based. As to conditions: ATCC25416, read-out: MIC B. cepcia.
The next data set can be described thus: in vivo. Further details: species or system rats. The note with it: male, Sprague-Dawley, rat, iv. As for the experimental part: Pharmacokinetic Studies: Catheterized male Sprague-Dawley rats (jugular vein alone for oral study and jugular vein and femoral vein for intravenous study) weighing approximately 225 g were obtained from Harlan Bioscience (Indianapolis, Ind., United States of America). The animals were kept on a 12 hr light/dark cycle with food and water available ad libitum. Groups of rats (n=4) received either an intravenous (IV) or oral dose of a test compound at a dose level of 10 mg/kg or 100 mg/kg, respectively. For oral administration, the animals were fasted overnight and until 4 hr after administration of test compound. Serial blood samples (approx. 250 μL) were collected pre-dose and at predetermined time points post-dose until 48 hours. Plasma was separated immediately by centrifugation (10,000 rpm for 10 min at 4° C.) and stored at −80° C. until analysis. Urine specimens were collected for a period of 48 hours following drug administration. The study protocol was approved by the institutional animal care and use committee of the University of Tennessee Health Science Center (Memphis, Tenn., United States of America).
Sample Preparation and LC-MS/MS Assay: A calibration curve ranging from 7.81-1000 μg/L was constructed for each test compound by spiking the test compound into 50 μL of blank plasma. […] Plasma proteins were precipitated by the addition of four volumes of ice cold methanol containing IS. These samples were vortexed and kept on ice for 20 minutes. Following this, the samples were centrifuged at 10,000 rpm for 10 minutes at 4° C. and the supernatants were diluted if necessary and injected onto LC-MS/MS for analysis. Chromatographic separations were carried out using a Shimadzu liquid chromatograph (Shimadzu Corporation, Kyoto, Japan) consisting of two pumps, online degasser, system controller and a CTC Leap auto sampler (Leap Technologies, Carrboro, N.C., United States of America). A gradient of methanol and 10 mM ammonium acetate at pH 3.5 was used at a flow rate of 0.4 mL/min. A Phenomenex® Luna 3μ HILIC, 100×4.6 mm column (Phenomenex, Torrance, Calif., United States of America) protected with a guard column was used for the separation. 10 μL of sample was injected onto the column and the eluate was led directly into an API 3000 triple-quadrupole mass spectrometer (Applied Biosystems ABI/MDS-Sciex, Foster City, Calif., United States of America) equipped with an electrospray ion source. The instrument was operated in the positive ion mode with nebulizer gas (NEB) at 7 psi, curtain gas (CUR) at 8 psi, collision gas (CAD) at 10 psi, ion spray voltage (IS) at +4000 V and temperature (TEM) at 500° C. The resulting multiple reaction monitoring chromatograms were used for quantification using Analyst software version 1.4.1 (Applied Biosystems ABI/MDS-Sciex, Foster City, Calif., United States of America).
Pharmacokinetic Data Analysis: Plasma concentration-time data for oral dose were analyzed by non-compartmental analysis. A two compartment open model with bolus input and first order output was used to analyze the IV plasma concentration-time data. The area under the plasma concentration-time curve from time 0 to infinity (AUCinf) was calculated by the trapezoidal rule with extrapolation to time infinity. Mean residence time (MRT), the average amount of time a particle remains in a compartment of system was calculated for IV dose using MRT=AUMCinf/AUCinf where AUMCinf is the area under the moment curve when the concentration-time curve is extrapolated to infinity. The systemic clearance (CL) was calculated using the equation CL=Doseiv/AUCinf iv, where Doseiv and AUCinf, iv are the IV dose and corresponding area under the plasma concentration-time curve from time 0 to infinity, respectively. An estimate of volume of distribution at steady state (Vss) was obtained from IV data using Vss=MRT*CL. […]

Data set [7] relates to Proteus mirabilis ATCC 25933. In words: MIC determination by microbroth dilution. The class given is cell-based. As to conditions: ATCC25933.
The subject of a further data set is E. faecalis ATCC 33186. Kind of data set: MIC determination by microbroth dilution. The class given is cell-based, Enterococcus faecalis. As to conditions: Enterococcus faecalis, ATCC33186.

The structures appear in SMILES notation. Where a name gives a salt, the structure may show the parent alone.

`CN[C@@H]1[C@H](O)[C@H](NC)C2O[C@]3(O)C(OC2[C@H]1O)O[C@H](C)C[C@H]3NC(=O)Cc1ccccn1` (stereo partly drawn) [Compound 1329, 3′-Dihydro-3′-deoxy-4(R)-(pyridin-2yl)acetylamino spectinomycin Dihydrochloride]: the MIC is over 200 µg/mL in data set [1]; over 200 µg/mL in [2]; 200 µg/mL in [4]; 50 µg/mL in the data set on E. coli K12 ΔtolC; 100 µg/mL against P. aeruginosa PAO1; 50 µg/mL in data set [5]. Further, the figures for the MIC (in [6]; in data set [7]; in the data set on E. faecalis ATCC 33186) were over 200 µg/mL, over 200 µg/mL and 100 µg/mL, respectively. In the data set with E. coli ribosomes (E. coli S30 system, FIG. 4, read-out: concentration causing 50% reduction in the synthesis of luciferase), the IC50 worked out at 660 nM. Also, in the data set on E. coli ribosomes (E. coli S30 transcription/translation assay), the “IC50, 50% inhibition of luciferase biosynthesis in S30 assay” value was determined as 0.29 µg/mL. Moreover, in [3], the “parent drug remaining intact” value worked out at 95%. Besides, the “therapeutic index (IC50 divided by the MIC)” value in the data set with Vero epithelial cells is recorded as 5456. Also, the clearance in “in vivo” is 13.3 mL/min/kg. For the same compound, in “in vivo”, the “dose eliminated unchanged in the first 6 hours” value is reported as “approx. 40%”. In addition, the “excretion ratio (renal clearance to glomerular filtration rate)” value in “in vivo” came to 1.7. Besides, the “fraction of dose excreted unchanged by the kidneys” value in “in vivo” is on record as 0.46. Also, in “in vivo”, the hepatic extraction ratio was determined as 0.13. For the same compound, the MRT in the data set “in vivo” (10 mg/kg) is about 5.3 h.

What is called clearance is a measure of how efficiently the substance is removed, as volume per time. As usually defined, the MRT is a mean duration of stay, worked out from the concentration-time curve.
